The source of these data is a melting point compilation (Tetko et al.; mined from patent text by program, amines drawn as free bases though some values may be those of a salt).

Broadly, the melting point is the temperature of the solid-liquid transition. For the molecule `C[C@H]1CCCC(C)(C)[C@@H]1[C@@H](O)c1cccc(Cl)c1`, the melting point lay in the range of 58 to 60 °C.

With `CC(c1ccc(N2CCCC2)cc1)c1ccc(N2CCCC2)cc1`, the melting point is 112 °C.

For the molecule `Fc1cc(F)cc(NC(=S)c2ccccn2)c1`, the melting point was 140 to 142 °C.

`CCOC(=O)c1c(C)nc2[nH]ncc2c1OCC` yielded a melting point of 180 to 182 °C.

Turning to `CS(=O)(=O)c1ccc(Nc2cc(N3CCOCC3)nc(-c3ccccc3)n2)cc1`, the melting point was 238 to 240 °C.

On to `C1=C(/C=C/c2ccccc2)CCN(Cc2n[nH]c3c2CCc2ccccc2-3)C1`, for which the melting point was 205 to 210 °C.

`CCCCCc1ncc(C(=O)OCC)c(O)n1`: the melting point was in the range of 127 to 129 °C.

Turning to `CCOC(=O)C=Cc1ccc(OCCN(C)c2ccccn2)cc1`, the melting point lay in the range of 80 to 81 °C.

`O=C(NCCCCCC1CCSS1)c1cccnc1` (configuration not stated) displayed a melting point of 41 to 44 °C.

On to `O=[N+]([O-])c1ccc2c(c1)CC(Cl)c1ccccc1S2` (configuration not stated), for which the melting point is 74 to 77 °C.

As to `Clc1ccc(-c2ccccc2Cl)nn1`, the melting point was 145 to 147 °C.

In turn, `O=C(O)C(=O)N1CCC(Cc2ccc(F)cc2)CC1` showed a melting point of 152 to 154 °C.

As for `CCCCCCCCCCCCCCCCCC(=O)NCCOC(=O)CCc1cc(C(C)(C)C)c(O)c(C(C)(C)C)c1`, the melting point fell in the range of 52 to 55 °C.

The molecule `COc1ccc(CNc2n[nH]c3ncnc(Nc4cccc(Cl)c4)c23)c(OC)c1OC` displayed a melting point of 168 to 169 °C.

In the case of `CCOC(=O)c1c(N(Cc2c(F)cccc2F)C(=O)OCC)sc(-c2ccc([N+](=O)[O-])cc2)c1CBr`, the melting point lay within 105 to 108 °C.

For `Nc1c([N+](=O)[O-])cc(Br)c2c1CN(CCc1ccccc1)CC2`, the melting point is 120 to 122 °C.

On to `Cc1c(C(=O)O)cnn1-c1ccc(F)c(Cl)c1`, for which the melting point is 187 °C.

In turn, `COc1ccc2c(=O)c(C(N)=O)cn(C)c2c1` registered a melting point of 304 to 306 °C.

Turning to `C=CCOc1ncnc2nc[nH]c12`, the melting point is 199 to 200 °C.

As to `Cn1nc2c(N)nc3c(c2c1CCC1CCCCC1)CCCC3`, the melting point lay in the range of 230 to 231 °C.

The molecule `CCc1cnc2n1N=C(c1ccc(N)cc1)c1cc3c(cc1C2)OCO3` returned a melting point of 258 to 260 °C.

As to `COc1cc(N)c(C)c(OC)c1OC`, the melting point lay within 49 to 51 °C.

Molecule `C=CCNC(=O)N1CC(Oc2ccc(C(F)(F)F)cc2)C1` registered a melting point of 91 to 92.5 °C.

`Clc1nn2nnnc2c2c1CCCC2` yielded a melting point of 109 to 110 °C.

Regarding `COc1ccc(SCCCCSc2ccc(OC)cc2)cc1`, the melting point was 102 to 103 °C.

The molecule `C#CCNC(=O)/C=C\SC(=O)c1ccccc1` showed a melting point of 131 to 134 °C.

`OCc1ccc(C2=NOC(c3cc(Cl)cc(Cl)c3)(C(F)(F)F)C2)cc1Cl` (configuration not stated): the melting point lay in the range of 32 to 35 °C.

With `O=C(NC(=O)c1c(Cl)cccc1Cl)Nc1ccc(Cl)cn1`, the melting point lay within 220 to 222 °C.

`CC(C)(C)OC(=O)N=C(NC(=O)OC(C)(C)C)Nc1ccc2c(c1)Cc1cc(NC(=NC(=O)OC(C)(C)C)NC(=O)OC(C)(C)C)ccc1-2` showed a melting point of over 340 °C.

In turn, `COC(=O)c1cc(OCc2ccccc2)c(OCc2ccccc2)c(CSCC(=O)O)n1` displayed a melting point of 135 °C.

In the case of `NC(=O)c1cnn2c1N(C(=S)NC(=O)c1ccccc1)CC=C2c1cccc(C(F)(F)F)c1`, the melting point fell in the range of 210 to 212 °C.

Turning to `O=C(c1ccccc1)N1CCc2c(c(=O)[nH]c3ccccc23)C1`, the melting point was 275 to 277 °C.

In the case of `CCOC(=O)c1ccc(-c2ccc(-c3ccc(Cl)cc3)s2)cc1`, the melting point fell in the range of 167 to 168 °C.

Molecule `Cc1cc(C)cc(-c2nc(NC(=O)C3CCCC3)sc2-c2ccncc2)c1` showed a melting point of 275 to 278 °C.

The molecule `CCOC(=O)C1=C(C(F)(F)F)Nc2n[nH]cc2C1c1ccccc1` (configuration not stated) registered a melting point of 110 to 115 °C.

As to `C(=C\c1ncc(-c2cnc(-c3ccccc3)nc2)[nH]1)/c1cccnc1`, the melting point came to 258 °C.

Take `CCCCC[C@@H](CNC(=O)Nc1c(OC(C)C)c(C)nn1C(C)(C)C)c1cccc2c1OCO2`: the melting point was in the range of 98.5 to 99 °C.

Consider `CC(=Nc1ccc(C2=NNC(=O)CC2C)cc1)c1ccc(O)cc1O` (configuration not stated), for which the melting point lay in the range of 185 to 190 °C.

The molecule `CC(C)(C)c1ccc(C2(O)CN(C(c3ccccc3)c3ccccc3)C2)cc1` registered a melting point of 168 to 169 °C.

`CCCCc1nc2c(N)nc3ccccc3c2n1CCNS(=O)(=O)c1ccc(C)cc1`: the melting point was in the range of 187 to 188 °C.

In turn, `CCCc1nc2ccccc2n1CC1=C(c2cccc(-c3nnn[nH]3)c2)CCC1` displayed a melting point of 116 to 119 °C.

Consider `Cc1cc(-c2cccc(Cl)c2)nn2cnnc12`, for which the melting point was 173 to 176 °C.

Molecule `Cc1cc(C)c(N)cn1` displayed a melting point of 62 to 64 °C.

Take `CCCCCCCNC(=O)N(C)c1cccc(-c2ccc(C=C(OCC)C(=O)O)cc2OCCCC)c1`: the melting point stood at 103 °C.

Molecule `CCCOc1ccc(/C=C/C(=O)O)cc1-c1nc2c(c(C)nn2CCC)c(=O)[nH]1` yielded a melting point of 231 to 232 °C.

Molecule `CCCc1nc2c(N)nc3cc(OCCN4CCCS4(=O)=O)ccc3c2s1` gave a melting point of 127 to 130 °C.

With `O=S(=O)(c1ccccc1)N1CCC(C(NCCc2ccccc2)c2ccc(F)cc2)CC1` (configuration not stated), the melting point was 115 to 117 °C.

Regarding `Cc1cc2c(NC(=S)N3Cc4ccsc4CC3CO)cccc2cn1` (racemic), the melting point was 190 °C.

Consider `CN1C(=O)[C@H](NC(=O)/C=C/c2ccc(F)cc2F)N=C(c2ccccc2)c2ccccc21`, for which the melting point is 121 to 123 °C.

`O=C1NC(=O)C(Cc2ccc(O)cc2)S1` (configuration not stated) yielded a melting point of 151 to 152 °C.

The molecule `Nc1cc(C(=O)O)cc(SCc2ccccc2)c1-c1ccccc1` came in with a melting point of 173 to 174 °C.

In the case of `COc1ccc(CSc2cccc3c2C(=O)c2cccc(SCc4ccc(OC)cc4)c2C3=O)cc1`, the melting point lay within 297 to 299 °C.

`O=C(CF)NOC(=O)C(F)(F)F` returned a melting point of 56 to 59 °C.

With `CC(C)(C)Nc1nc(-c2ccc(F)cc2)c(-c2ccc(S(C)(=O)=O)cc2)s1`, the melting point lay in the range of 250 to 253 °C.

Turning to `CC1(O)NC(=O)OC12CCNCC2` (configuration not stated), the melting point lay within 192 to 194 °C.

Turning to `CCOC(=O)c1cnc2ccc(Cl)cc2c1-c1ccccc1`, the melting point was 123 to 124 °C.

Take `CCOc1ccc(-c2[nH]nc3c2C(=O)c2c(NC(C)=O)cccc2-3)cc1`: the melting point came out at 288 °C.

With `O=C(NCCCOc1cc(CN2CCCCC2)ccn1)c1cn[nH]c1`, the melting point was 117 to 119 °C.

The molecule `CC1(Cc2ccccc2)CCCNC1=O` (configuration not stated) registered a melting point of 76 to 78 °C.

For `CC#CCOc1ccc(SC(C(=O)O)c2cccc(Cl)c2)cc1` (configuration not stated), the melting point turned out to be 64 °C.

`CNCCOc1cccc2c1CC(=O)N2` yielded a melting point of 153 to 156 °C.

Take `CC(C)COC(NC(=O)OCc1ccccc1)C(=O)O` (configuration not stated): the melting point was 66 to 68 °C.

`CCCCCC(=O)c1c(Cn2cncn2)nc2cc(OC)c(OC)cc2c1-c1ccc(OC)c(OC)c1` returned a melting point of 151 to 152 °C.

Molecule `CC1CCc2c(-c3ccccc3)nc(=O)n(C(C)C)c2C1` (configuration not stated) yielded a melting point of 150 to 153 °C.

In the case of `CC(C)(C)c1ccc(Sc2ccsc2CN(O)C(N)=O)cc1`, the melting point is 144 to 146 °C.

The molecule `CCCOc1ccccc1-c1nc2nc(NCCN(C)C)ncc2c(=O)[nH]1` came in with a melting point of 181 to 182 °C.

Regarding `C=CCc1cc2cc(CC=C(C)C)c(=O)[nH]c2c(CC=C)c1O`, the melting point lay within 241 to 244 °C.

On to `CC(=O)N1CC(C)(C)c2cc(OC(C)C)ccc21`, for which the melting point was 86 to 87 °C.

As for `Nc1cccc(NC(=O)C(=O)C(=O)O)c1`, the melting point worked out at 246 °C.

`CC1C(C#N)=C(N)OC2=C1C(=O)CC(c1cccc3ccccc13)C2` (configuration not stated) returned a melting point of 204 to 206 °C.

The molecule `Cc1oncc1C(=O)c1ccc(C(F)(F)F)cc1[N+](=O)[O-]` showed a melting point of 85 to 86 °C.

In turn, `CC(C)(O)CC(=O)N[C@H]1CC[C@H](CCN2CCN(c3nccc4c3OCC4)CC2)CC1` displayed a melting point of 139 °C.

The molecule `CC(=O)Nc1cccc2c1C(C#N)C2` (configuration not stated) came in with a melting point of under 50 °C.

Turning to `O=C(Nc1cccc(C(F)(F)F)c1)C(F)(F)F`, the melting point is 69 °C.

`N#CN1CCN(c2nn(S(=O)(=O)c3ccccc3)c3cc(F)ccc23)CC1` yielded a melting point of 178 to 180 °C.

As to `COc1ccnc(CS(=O)c2nc3cc4c(cc3[nH]2)OC(F)(F)C(F)(Cl)O4)c1` (configuration not stated), the melting point was in the range of 179 to 181 °C.

Consider `CC(C)(C)n1ncc(N)c(Cl)c1=O`, for which the melting point was 194 to 198 °C.

For `CCOC(=O)COc1ccc(C(=O)Nc2cccc(F)c2Sc2ccccc2-c2nnn[nH]2)cc1`, the melting point lay within 208 to 209 °C.

Consider `COc1nc(Cl)nc(N)c1-c1ccccc1`, for which the melting point was 213 °C.

The molecule `COc1ccc(-c2ccc(OC)c(C34CC5CC(CC(C5)C3)C4)c2)cc1C12CC3CC(CC(C3)C1)C2` returned a melting point of 288 to 289 °C.

The molecule `C#CCOCc1c(C)nc2c(OCc3ccccc3C)cccn12` showed a melting point of 87 to 89 °C.

In the case of `COC(=O)[C@H](Cc1ccc(O)c(C2SCCS2)c1)NC(C)=O`, the melting point was in the range of 97 to 99 °C.

As to `O=S(=O)(c1nc[nH]n1)c1ccc(C(F)(F)F)cc1Cl`, the melting point lay within 222 to 224 °C.

`COC(=O)C[C@H]1COS(=O)(=O)N1C(=O)OCC1c2ccccc2-c2ccccc21` returned a melting point of 138 to 140 °C.

`OCc1ccc(OCCCCCSc2ccnc3cc(C(F)(F)F)ccc23)cc1` displayed a melting point of 98.3 °C.

As to `COc1cc(Cl)ccc1C(=O)NCCc1nc(-c2ccncn2)cc(=O)n1C`, the melting point lay within 121 to 123 °C.

As for `CN(CCOc1ccc(CC(F)C(N)=O)cc1)c1nc2ccccc2o1` (configuration not stated), the melting point is 168 to 170 °C.

In the case of `CCOC(=O)C1=C(COC)NC(COC)=C(C(=O)OCC)C1c1ccccc1C(F)(F)F`, the melting point was in the range of 133 to 134 °C.

The molecule `Cc1cccc2nc(NC(=O)c3ccc(C(C)(C)CCC(=O)O)cc3)cn12` displayed a melting point of 260 °C.

`Nc1c(-c2cc(Cl)ccc2O)c2c(C(F)(F)F)cccc2[nH]c1=O`: the melting point lay in the range of 267 to 268 °C.

As to `Cc1c(C(=O)Nc2ccc(OCC(C)(C)C)c(C#N)c2)cnn1C`, the melting point was in the range of 187 to 188 °C.

As for `Cc1ccc(Oc2noc(=O)n2S(=O)(=O)c2c(C)noc2C)c(C)c1`, the melting point is 135 to 136 °C.
